In ChEMBL document CHEMBL5096238 (J Med Chem, 2022):

Assays:
[1] = MRT (0 to t) in Sprague-Dawley rat at 10 mg/kg, ip measured for 24 hrs by LC-MS/MS analysis; assay type: ADME, organism-based; settings: in vivo
[2] = Cmax in Sprague-Dawley rat at 10 mg/kg, ip measured for 24 hrs by LC-MS/MS analysis; assay type: ADME, organism-based; design: time 24 hrs, dose 10 mg/kg, route ip; settings: in vivo
[3] = biological target: Voltage-gated inwardly rectifying potassium channel KCNH2 (Homo sapiens, UniProt Q12809); assay: Inhibition of hERG expressed in HEK293 cells by whole-cell patch clamp technique; assay type: toxicity, cell-based
[4] = biological target: T1, Hepatocyte growth factor receptor (Homo sapiens, UniProt P08581); settings: Hs746T, dose 1.1-30 nM, time 12.0 hrs
[5] = Bioavailability in Sprague-Dawley rat at 10 mg/kg, ip measured for 24 hrs by LC-MS/MS analysis; assay type: ADME, organism-based; settings: in vivo
[6] = Cmax in Sprague-Dawley rat at 10 mg/kg, po measured for 24 hrs by LC-MS/MS analysis; assay type: ADME, organism-based; design: dose 10 mg/kg, time 24 hrs, route po; settings: in vivo
[7] = Tmax in Sprague-Dawley rat at 10 mg/kg, ip measured for 24 hrs by LC-MS/MS analysis; assay type: ADME, organism-based; settings: in vivo
[8] = test system: BaF3; assay: Induction of apoptosis in mouse BaF3 cells harboring wild type Tpr-Met fusion protein assessed as viable cells at 10 nM incubated for 48 hrs by Annexin V/7-AAD staining based flow cytometry analysis (reference value: 89.76%); assay type: functional; settings: read-out: Activity
[9] = AUC(0 to t) in Sprague-Dawley rat at 10 mg/kg, po measured for 24 hrs by LC-MS/MS analysis; assay type: ADME, organism-based; design: time 24 hrs, dose 10 mg/kg, route po; settings: in vivo
[10] = test system: BaF3; assay: Induction of apoptosis in mouse BaF3 cells harboring wild type Tpr-Met fusion protein assessed as viable cells at 40 nM incubated for 48 hrs by Annexin V/7-AAD staining based flow cytometry analysis (reference value: 89.76%); assay type: functional; settings: read-out: Activity
[11] = Oral bioavailability in Sprague-Dawley rat at 10 mg/kg measured for 24 hrs by LC-MS/MS analysis; assay type: ADME, organism-based; settings: in vivo
[12] = Tmax in Sprague-Dawley rat at 10 mg/kg, po measured for 24 hrs by LC-MS/MS analysis; assay type: ADME, organism-based; settings: in vivo
[13] = biological target: T2, Tyrosine-protein kinase receptor UFO (Homo sapiens, UniProt P30530); assay: Inhibition of AXL (unknown origin)
T2 sequence (P30530 whole entry): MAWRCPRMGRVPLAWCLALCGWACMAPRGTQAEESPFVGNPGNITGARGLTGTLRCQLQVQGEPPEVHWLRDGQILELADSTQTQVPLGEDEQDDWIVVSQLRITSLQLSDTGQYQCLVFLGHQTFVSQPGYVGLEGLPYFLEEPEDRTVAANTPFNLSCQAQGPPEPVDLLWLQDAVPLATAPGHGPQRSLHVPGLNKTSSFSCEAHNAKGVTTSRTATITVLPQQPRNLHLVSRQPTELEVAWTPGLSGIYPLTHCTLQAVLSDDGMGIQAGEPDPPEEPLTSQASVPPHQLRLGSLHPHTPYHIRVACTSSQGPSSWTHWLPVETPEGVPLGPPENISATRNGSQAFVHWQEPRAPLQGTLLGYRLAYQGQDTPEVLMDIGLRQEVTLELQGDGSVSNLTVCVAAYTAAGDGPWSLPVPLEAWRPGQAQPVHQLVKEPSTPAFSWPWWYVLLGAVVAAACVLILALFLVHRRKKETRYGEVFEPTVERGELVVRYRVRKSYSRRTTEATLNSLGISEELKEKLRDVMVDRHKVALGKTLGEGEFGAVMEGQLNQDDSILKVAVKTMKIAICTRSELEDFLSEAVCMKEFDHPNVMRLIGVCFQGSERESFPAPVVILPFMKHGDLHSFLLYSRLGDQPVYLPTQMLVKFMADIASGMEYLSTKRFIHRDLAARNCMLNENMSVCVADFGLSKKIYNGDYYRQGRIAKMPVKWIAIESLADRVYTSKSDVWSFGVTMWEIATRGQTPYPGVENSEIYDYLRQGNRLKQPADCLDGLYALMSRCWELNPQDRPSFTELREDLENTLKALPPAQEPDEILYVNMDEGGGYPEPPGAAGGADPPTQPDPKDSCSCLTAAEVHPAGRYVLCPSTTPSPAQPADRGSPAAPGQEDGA

[14] = Apparent permeability across apical to basolateral side in human Caco-2 cells at 10 uM incubated for 120 mins by LC-MS/MS analysis; assay type: ADME, cell-based
[15] = biological target: Cytochrome P450 3A4 (Homo sapiens, UniProt P08684); assay: Inhibition of CYP3A4 (unknown origin) in microsomes sing testosterone as a substrate preincubated for 5 mins followed by NADPH addition by LC-MS/MS analysis; assay type: ADME, Microsome
[16] = MRT (0 to t) in Sprague-Dawley rat at 10 mg/kg, po measured for 24 hrs by LC-MS/MS analysis; assay type: ADME, organism-based; settings: in vivo
[17] = AUC(0 to t) in Sprague-Dawley rat at 2 mg/kg, iv measured for 24 hrs by LC-MS/MS analysis; assay type: ADME, organism-based; design: time 24 hrs, dose 2 mg/kg, route iv; settings: in vivo
[18] = Cmax in Sprague-Dawley rat at 2 mg/kg, iv measured for 24 hrs by LC-MS/MS analysis; assay type: ADME, organism-based; design: dose 2 mg/kg, time 24 hrs, route iv; settings: in vivo
[19] = biological target: Hepatocyte growth factor receptor (Mus musculus) (UniProt P16056); settings: BaF3, dose 1.1-30 nM, time 12.0 hrs
[20] = biological target: Cytochrome P450 2D6 (Homo sapiens, UniProt P10635); assay: Inhibition of CYP2D6 (unknown origin) in microsomes preincubated for 5 mins followed by NADPH addition by LC-MS/MS analysis; assay type: ADME, Microsome
[21] = Tmax in Sprague-Dawley rat at 2 mg/kg, iv measured for 24 hrs by LC-MS/MS analysis; assay type: ADME, organism-based; settings: in vivo
[22] = MRT (0 to t) in Sprague-Dawley rat at 2 mg/kg, iv measured for 24 hrs by LC-MS/MS analysis; assay type: ADME, organism-based; settings: in vivo
[23] = test system: BaF3; assay: Induction of apoptosis in mouse BaF3 cells harboring wild type Tpr-Met fusion protein assessed as viable cells at 20 nM incubated for 48 hrs by Annexin V/7-AAD staining based flow cytometry analysis (reference value: 89.76%); assay type: functional; settings: read-out: Activity
[24] = Clearance in Sprague-Dawley rat at 2 mg/kg, iv measured for 24 hrs by LC-MS/MS analysis; assay type: ADME, organism-based; settings: in vivo
[25] = Apparent volume of distribution in Sprague-Dawley rat at 2 mg/kg, iv measured for 24 hrs by LC-MS/MS analysis; assay type: ADME, organism-based; settings: in vivo, read-out: Vz
[26] = biological target: T1, Hepatocyte growth factor receptor; assay: Inhibition of N-terminal His/SUMO tagged wild type human c-Met (1038 to 1346 residues) transfected in Escherichia coli using Tyr06 peptide as substrate incubated for 1 hr in presence of ATP by FRET-based Z'-Lyte assay
[27] = AUC(0 to t) in Sprague-Dawley rat at 10 mg/kg, ip measured for 24 hrs by LC-MS/MS analysis; assay type: ADME, organism-based; design: dose 10 mg/kg, time 24 hrs, route ip; settings: in vivo
[28] = Half life in Sprague-Dawley rat at 10 mg/kg, ip measured for 24 hrs by LC-MS/MS analysis; assay type: ADME, organism-based; settings: in vivo
[29] = Half life in Sprague-Dawley rat at 2 mg/kg, iv measured for 24 hrs by LC-MS/MS analysis; assay type: ADME, organism-based; settings: in vivo
[30] = Half life in Sprague-Dawley rat at 10 mg/kg, po measured for 24 hrs by LC-MS/MS analysis; assay type: ADME, organism-based; settings: in vivo
[31] = biological target: Cytochrome P450 2C9 (Homo sapiens, UniProt P11712); assay: Inhibition of CYP2C9 (unknown origin) in microsomes preincubated for 5 mins followed by NADPH addition by LC-MS/MS analysis; assay type: ADME, Microsome

T1 sequence (P08581 whole entry): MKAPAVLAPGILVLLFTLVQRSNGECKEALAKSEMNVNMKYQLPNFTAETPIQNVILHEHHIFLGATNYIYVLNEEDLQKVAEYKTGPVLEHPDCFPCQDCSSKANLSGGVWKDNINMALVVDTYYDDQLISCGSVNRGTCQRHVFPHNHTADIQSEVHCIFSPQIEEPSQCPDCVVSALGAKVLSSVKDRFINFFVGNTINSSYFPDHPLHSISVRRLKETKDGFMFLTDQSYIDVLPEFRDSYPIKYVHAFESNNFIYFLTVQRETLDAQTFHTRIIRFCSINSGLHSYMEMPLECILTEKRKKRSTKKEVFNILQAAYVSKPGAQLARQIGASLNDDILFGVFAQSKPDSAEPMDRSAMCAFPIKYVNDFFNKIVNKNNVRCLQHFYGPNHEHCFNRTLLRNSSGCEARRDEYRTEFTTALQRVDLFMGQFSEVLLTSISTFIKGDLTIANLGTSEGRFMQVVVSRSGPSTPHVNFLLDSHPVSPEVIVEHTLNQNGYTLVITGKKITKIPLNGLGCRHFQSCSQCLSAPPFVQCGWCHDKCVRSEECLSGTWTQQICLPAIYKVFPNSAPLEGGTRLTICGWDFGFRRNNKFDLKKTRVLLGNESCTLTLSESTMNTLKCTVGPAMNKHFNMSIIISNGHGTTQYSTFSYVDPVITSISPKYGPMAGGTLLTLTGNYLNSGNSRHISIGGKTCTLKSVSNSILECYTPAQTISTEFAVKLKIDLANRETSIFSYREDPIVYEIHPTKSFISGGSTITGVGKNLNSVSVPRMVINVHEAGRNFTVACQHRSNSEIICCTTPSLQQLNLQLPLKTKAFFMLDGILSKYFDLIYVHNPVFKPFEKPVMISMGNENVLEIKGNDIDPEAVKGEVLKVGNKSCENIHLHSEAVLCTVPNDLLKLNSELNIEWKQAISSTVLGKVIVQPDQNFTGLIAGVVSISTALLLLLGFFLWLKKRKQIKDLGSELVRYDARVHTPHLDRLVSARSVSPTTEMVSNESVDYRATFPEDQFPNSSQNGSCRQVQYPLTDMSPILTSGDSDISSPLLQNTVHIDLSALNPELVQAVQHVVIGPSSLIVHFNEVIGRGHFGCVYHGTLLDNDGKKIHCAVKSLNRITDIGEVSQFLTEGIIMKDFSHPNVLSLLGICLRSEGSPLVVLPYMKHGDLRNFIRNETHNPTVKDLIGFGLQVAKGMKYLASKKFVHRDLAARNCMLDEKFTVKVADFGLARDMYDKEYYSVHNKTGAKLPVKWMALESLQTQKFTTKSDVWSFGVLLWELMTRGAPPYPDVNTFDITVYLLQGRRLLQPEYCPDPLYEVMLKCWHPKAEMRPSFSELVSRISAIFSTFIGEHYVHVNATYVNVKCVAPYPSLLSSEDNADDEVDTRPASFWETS
Sequence of Hepatocyte growth factor receptor (Mus musculus) (P16056 whole entry): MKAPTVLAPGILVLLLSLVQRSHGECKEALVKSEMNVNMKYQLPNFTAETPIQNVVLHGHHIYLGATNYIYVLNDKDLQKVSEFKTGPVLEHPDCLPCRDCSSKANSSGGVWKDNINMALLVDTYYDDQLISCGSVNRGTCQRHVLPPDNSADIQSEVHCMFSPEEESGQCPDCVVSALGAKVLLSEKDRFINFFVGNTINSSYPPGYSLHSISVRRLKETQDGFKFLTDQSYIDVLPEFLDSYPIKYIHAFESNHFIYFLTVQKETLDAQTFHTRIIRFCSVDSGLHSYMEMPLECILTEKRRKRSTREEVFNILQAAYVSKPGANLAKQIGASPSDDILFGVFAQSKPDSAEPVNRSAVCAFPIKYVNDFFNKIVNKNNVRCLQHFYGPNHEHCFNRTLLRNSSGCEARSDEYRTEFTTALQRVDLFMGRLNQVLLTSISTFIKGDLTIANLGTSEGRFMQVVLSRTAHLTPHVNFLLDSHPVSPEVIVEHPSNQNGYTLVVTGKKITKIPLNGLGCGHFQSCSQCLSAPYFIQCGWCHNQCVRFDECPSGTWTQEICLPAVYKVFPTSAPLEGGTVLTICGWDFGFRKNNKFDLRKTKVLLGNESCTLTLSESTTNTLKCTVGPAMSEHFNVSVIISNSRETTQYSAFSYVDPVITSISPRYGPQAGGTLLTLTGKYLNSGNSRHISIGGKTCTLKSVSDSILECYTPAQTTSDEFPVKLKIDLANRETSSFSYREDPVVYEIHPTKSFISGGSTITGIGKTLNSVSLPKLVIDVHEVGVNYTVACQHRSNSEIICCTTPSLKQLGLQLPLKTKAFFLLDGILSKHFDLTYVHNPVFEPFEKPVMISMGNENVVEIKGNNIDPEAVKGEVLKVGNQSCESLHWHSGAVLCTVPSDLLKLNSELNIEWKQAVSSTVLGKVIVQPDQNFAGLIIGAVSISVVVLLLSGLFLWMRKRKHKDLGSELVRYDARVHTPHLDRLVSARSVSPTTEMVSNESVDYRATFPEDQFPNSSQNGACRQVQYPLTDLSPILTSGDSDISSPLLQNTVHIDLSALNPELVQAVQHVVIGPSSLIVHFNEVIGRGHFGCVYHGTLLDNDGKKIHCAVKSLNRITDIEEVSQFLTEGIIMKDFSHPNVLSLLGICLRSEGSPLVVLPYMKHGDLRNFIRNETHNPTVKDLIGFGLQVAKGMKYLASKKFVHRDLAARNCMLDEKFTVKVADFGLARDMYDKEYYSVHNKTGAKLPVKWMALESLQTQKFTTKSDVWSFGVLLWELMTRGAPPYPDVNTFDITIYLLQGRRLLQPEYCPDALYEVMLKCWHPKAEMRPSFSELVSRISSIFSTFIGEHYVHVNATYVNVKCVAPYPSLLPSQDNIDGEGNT
Sequence of Voltage-gated inwardly rectifying potassium channel KCNH2 (Q12809 whole entry): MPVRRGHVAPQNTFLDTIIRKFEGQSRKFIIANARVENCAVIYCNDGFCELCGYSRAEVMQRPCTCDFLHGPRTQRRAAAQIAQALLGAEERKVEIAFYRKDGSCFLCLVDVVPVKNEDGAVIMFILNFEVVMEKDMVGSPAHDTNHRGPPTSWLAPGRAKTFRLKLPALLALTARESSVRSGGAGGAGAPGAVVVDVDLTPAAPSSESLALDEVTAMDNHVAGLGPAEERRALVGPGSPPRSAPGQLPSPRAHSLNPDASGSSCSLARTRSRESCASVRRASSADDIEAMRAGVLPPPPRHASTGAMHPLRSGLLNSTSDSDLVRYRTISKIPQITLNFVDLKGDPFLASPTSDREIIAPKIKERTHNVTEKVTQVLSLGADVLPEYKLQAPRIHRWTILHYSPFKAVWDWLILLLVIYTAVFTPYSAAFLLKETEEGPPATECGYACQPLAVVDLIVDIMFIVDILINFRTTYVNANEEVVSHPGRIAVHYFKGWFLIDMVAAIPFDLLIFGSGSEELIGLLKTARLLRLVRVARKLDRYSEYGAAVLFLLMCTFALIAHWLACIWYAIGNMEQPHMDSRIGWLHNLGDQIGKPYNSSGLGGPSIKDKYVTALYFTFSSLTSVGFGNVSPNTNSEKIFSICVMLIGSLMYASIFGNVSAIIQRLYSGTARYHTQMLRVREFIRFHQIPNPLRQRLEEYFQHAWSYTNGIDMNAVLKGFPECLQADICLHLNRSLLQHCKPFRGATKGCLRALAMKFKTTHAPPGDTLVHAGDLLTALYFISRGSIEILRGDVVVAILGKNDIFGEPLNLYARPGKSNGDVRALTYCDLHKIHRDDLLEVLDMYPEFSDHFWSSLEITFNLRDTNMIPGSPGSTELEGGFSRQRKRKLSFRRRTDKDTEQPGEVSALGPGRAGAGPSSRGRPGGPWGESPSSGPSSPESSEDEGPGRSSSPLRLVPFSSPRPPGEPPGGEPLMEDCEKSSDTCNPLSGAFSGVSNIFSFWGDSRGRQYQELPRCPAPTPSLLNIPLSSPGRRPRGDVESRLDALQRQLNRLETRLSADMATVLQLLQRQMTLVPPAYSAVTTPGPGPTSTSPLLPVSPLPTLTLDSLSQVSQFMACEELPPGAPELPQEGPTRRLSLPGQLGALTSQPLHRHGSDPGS
Sequence of Cytochrome P450 3A4 (P08684 whole entry): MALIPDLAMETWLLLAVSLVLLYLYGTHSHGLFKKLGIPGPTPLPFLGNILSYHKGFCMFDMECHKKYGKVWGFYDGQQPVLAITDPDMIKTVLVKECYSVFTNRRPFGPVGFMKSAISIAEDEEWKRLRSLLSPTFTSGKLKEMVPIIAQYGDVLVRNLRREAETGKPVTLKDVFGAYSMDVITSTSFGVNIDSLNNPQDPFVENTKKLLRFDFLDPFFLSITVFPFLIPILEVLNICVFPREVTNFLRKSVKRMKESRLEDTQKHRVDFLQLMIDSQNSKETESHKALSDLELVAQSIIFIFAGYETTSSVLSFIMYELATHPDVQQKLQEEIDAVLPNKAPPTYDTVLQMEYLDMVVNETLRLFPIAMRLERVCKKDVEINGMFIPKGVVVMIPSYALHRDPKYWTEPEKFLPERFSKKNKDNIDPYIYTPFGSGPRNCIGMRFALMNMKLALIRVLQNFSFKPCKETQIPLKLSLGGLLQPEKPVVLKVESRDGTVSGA
Sequence of Cytochrome P450 2D6 (P10635 whole entry): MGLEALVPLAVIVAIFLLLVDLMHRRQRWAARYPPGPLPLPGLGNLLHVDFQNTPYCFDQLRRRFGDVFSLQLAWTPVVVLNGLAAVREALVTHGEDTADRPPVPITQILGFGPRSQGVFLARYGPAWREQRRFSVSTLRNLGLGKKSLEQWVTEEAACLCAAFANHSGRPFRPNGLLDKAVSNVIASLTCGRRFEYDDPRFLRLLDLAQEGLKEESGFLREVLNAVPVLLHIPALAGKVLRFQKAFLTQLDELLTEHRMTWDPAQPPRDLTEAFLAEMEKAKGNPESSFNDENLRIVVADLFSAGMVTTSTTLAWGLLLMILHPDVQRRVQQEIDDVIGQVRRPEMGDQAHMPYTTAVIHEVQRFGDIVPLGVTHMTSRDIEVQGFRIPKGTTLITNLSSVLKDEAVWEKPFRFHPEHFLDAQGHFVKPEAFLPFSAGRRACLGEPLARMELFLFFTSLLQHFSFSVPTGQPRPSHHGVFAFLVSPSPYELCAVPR

MRT last at 24 h [1]: 204 min | Cmax [2]: 282 ng/mL | inhibition [4]: Dde | bioavailability [5]: 33.9% | Cmax [6]: 61 ng/mL | Tmax [7]: 15 min | AUC(0-t) at 24 h [9]: 48.9 ng·h/mL | bioavailability [11]: 2.02% | Tmax [12]: 15 min | IC50 [13]: 0.401 µM | Papp A→B at 2 h, 10 µM [14]: 0.53 ×10⁻⁶ cm/s | IC50 [15]: > 10 µM | MRT last at 24 h [16]: 103 min | AUC(0-t) at 24 h [17]: 484 ng·h/mL | Cmax [18]: 1070 ng/mL | inhibition [19]: Dde | IC50 [20]: > 10 µM | Tmax [21]: 4.8 min | MRT last at 24 h [22]: 21.6 min | clearance [24]: 70.1 mL/min/kg | Vd [25]: 3.47 L/kg | IC50 [26]: 0.0029 µM | AUC(0-t) at 24 h [27]: 820 ng·h/mL | half-life [28]: 278 min | half-life [29]: 34.2 min | half-life [30]: 149 min | IC50 [31]: > 10 µM
Structure (SMILES): O=C1NCCCCn2cc(cn2)-c2cnc3ccc(cc3c2)CCn2nc(ccc2=O)-c2ccc1c(C(F)(F)F)c2
IC50 [3]: 27.7 µM | viability at 0.01 µM [8]: 87% | viability at 0.04 µM [10]: 42.9% | viability at 0.02 µM [23]: 75.4%
